Results reported in US20240279278A1, “NMU RECEPTOR 2 AGONISTS” (Boehringer Ingelheim International GmbH, priority 2023, published 2024).
Residues, ends and D or L forms follow the SMILES beside them.

Assays:
human NMUR2 receptor [1] = target: T1, human NMUR2 receptor (Homo sapiens, UniProt Q9GZQ4); assay: IP1 Gq HTRF assay, activation of human NMUR2 in buffer; assay type: cell-based; design: expressed in transfected cells; host or cells: CHO-K1; conditions: CHO-K1 cells expressing human NMUR2, stimulation buffer with 0.1% BSA; read-out: EC50 (hNMUR2) buffer
T1 sequence (Q9GZQ4 whole entry): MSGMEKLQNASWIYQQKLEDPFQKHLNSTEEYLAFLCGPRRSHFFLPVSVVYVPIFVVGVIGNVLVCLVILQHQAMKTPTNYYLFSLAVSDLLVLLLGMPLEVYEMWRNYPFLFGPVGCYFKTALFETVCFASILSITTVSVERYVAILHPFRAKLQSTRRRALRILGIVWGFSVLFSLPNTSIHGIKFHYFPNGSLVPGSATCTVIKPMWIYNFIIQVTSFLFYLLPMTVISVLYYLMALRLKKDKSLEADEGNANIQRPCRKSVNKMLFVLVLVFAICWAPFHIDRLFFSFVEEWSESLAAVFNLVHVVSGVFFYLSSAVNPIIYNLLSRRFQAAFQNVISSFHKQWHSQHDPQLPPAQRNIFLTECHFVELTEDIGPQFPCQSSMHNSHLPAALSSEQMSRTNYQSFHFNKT
Outline: (§1)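 CHO-K1 cells stably expressing human NMUR1 or NMUR2, seeded 24 h before assay, stimulated with peptide agonists (8-point dose-response, 1% DMSO final) in HEPES/HBSS buffer with 50 mM LiCl and 0.1% BSA, pH 7.4, 1 h at 37 °C. IP1 accumulation read by HTRF competition (665/620 nm); EC50 from 4-parameter sigmoidal fit.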

human NMUR2 receptor [2] = target: T1, human NMUR2 receptor; assay: Radioligand binding competition assay (RLB), human NMUR2 receptor binding (SPA, [125I]-Neuromedin U-25); design: host or cells: CHO-K1; conditions: CHO-K1 hNMUR2 cell membranes, 4 hours at RT
Description: Example 1: Radioligand Binding Competition Assay (RLB) Human NMUR2 Receptor Binding
The test is based on membranes prepared from a Human NMUR2/Apoaequorin Stable Cell Line (Creative Biogene, Cat. No. CSC-RG1309).
Cell Line Description: CHO-NMUR2 cell line is clonally derived from a CHO-K1 cell line, which has been transfected with a bicistronic expression plasmid containing the sequence coding for the human neuromedin U receptor 2 (AF242874.1). MOSAIC-ID: CL16550616.
Membrane preparation: Cells were broken by nitrogen cavitation (900 psi, 1 hour). Intact cells were removed by centrifugation (400 rcf (relative centrifugal force), 10 minutes, 4° C.) before the crude membrane fraction was collected by ultracentrifugation (20.000 rcf, 1 hour, 4° C.).
2) Human NMUR2 Receptor Binding Assay (Radioligand: [125I]-Neuromedin U-25 (Human))
In this Scintillation Proximity Assay (SPA) design, the membranes immobilize directly to the PVT-WGA-PEI type A beads (polyethyleneimine treated polyvinyltoluene beads coupled to wheatgerm agglutinin, Perkin Elmer) via interactions of wheat germ agglutinate and glycosylated membrane structures. Thereby the radioactively la-belled ligand, bound to NMUR2 receptors on the membrane, comes in close proximity to the solid scintillator of the PVT bead. Radioactive human neuromedin U-25 then stimulates the scintillant to emit light. In contrast, radioligand not bound to the receptor is too distant from the bead to elicit a signal.
For the Scintillation Proximity Assay the CHO-K1 hNMUR2 cell membranes and SPA-beads are diluted to concentrations, which assure a robust signal to background ratio. The SPA incubation buffer consists of 25 mM Hepes (pH=7.0), 5 mM MgCl2, 1 mM CaCl2, 10 ug/mL Saponine and 0.1% bovine serum albumin and is used for all dilutions.
Final assay setup in 96-well plate: 20 μL of 10× test compound dilutions+40 μL of 5× [125l]-Neuromedin U-25 (1× approx. 30 pM; 2000 μCi/mmol)+60 μL membrane dilution (approx. 2.5 μg membrane protein)+80 μL SPA bead dilution (0.75 mg).
The assay is incubated for 4 hours at RT, including controls for specific binding where no displacer is added and non-specific binding by adding unlabeled hNMU-25 at 100 nM. Bound radioactivity is determined by scintillation counting (MicroBeta Trilux 1450, Perkin Elmer, detection of 125I decay). […] The system assumes one binding site with no relevant radioligand depletion (<10%) and that the binding is reversible and at equilibrium.

human NMUR1 receptor = target: T2, human NMUR1 receptor (Homo sapiens, UniProt Q9HB89); assay: IP1 Gq HTRF assay, activation of human NMUR1 in buffer; assay type: cell-based; conditions: CHO-K1 cells expressing human NMUR1, stimulation buffer with 0.1% BSA; read-out: EC50 (hNMUR1) buffer
T2 construct: expressed in transfected cells; host or cells: CHO-K1
T2 sequence (Q9HB89 1-426): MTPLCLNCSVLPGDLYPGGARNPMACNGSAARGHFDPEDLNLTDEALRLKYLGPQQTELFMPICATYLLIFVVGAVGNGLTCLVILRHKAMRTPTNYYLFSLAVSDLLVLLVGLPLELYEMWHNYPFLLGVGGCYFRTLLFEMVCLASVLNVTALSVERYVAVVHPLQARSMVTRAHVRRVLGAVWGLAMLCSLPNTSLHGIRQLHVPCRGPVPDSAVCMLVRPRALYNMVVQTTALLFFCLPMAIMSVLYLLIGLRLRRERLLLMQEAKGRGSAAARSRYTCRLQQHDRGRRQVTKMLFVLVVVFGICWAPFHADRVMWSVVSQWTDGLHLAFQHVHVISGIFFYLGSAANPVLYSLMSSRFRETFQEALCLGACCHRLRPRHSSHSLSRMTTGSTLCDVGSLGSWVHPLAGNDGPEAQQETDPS
Outline: as §1

SMILES | EC50 (human NMUR2 receptor [1]) [nM] | Ki (human NMUR2 receptor [2]) [nM] | EC50 (human NMUR1 receptor) [nM]
CCCC[C@H](NC(=O)[C@H](CC(C)C)N(C)C(=O)[C@H](Cc1ccccc1)NC(=O)[C@H](Cc1ccc(O)cc1)NC(=O)CN1CCN(CCNC(=O)CN(C)C(=O)CN(C)C(=O)CN(C)C(=O)CN(C)C(=O)CN(C)C(=O)CN(C)C(=O)CN(C)C(=O)CN(C)C(=O)CN(C)C(=O)CN(C)C(=O)CN(C)C(=O)CN(C)C(=O)CN(C)C(=O)CN(C)C(=O)CN(C)C(=O)CC[C@H](NC(=O)CC[C@H](NC(=O)CC[C@H](NC(=O)CCCCCCCCCCCCCCCCC(=O)O)C(=O)O)C(=O)O)C(=O)O)CC1)C(=O)N[C@@H](CCCNC(=N)N)C(=O)N(C)[C@@H](C)C(=O)N[C@@H](CCCNC(=N)N)C(=O)NCC(N)=O [Compound 11, C18DA-gGlu3-Sar15-AEPipAc-Tyr-Phe-NMeLeu-Nle-Arg-NMeAla-Arg-Gly-NH2] (HELM PEPTIDE1{[O=C(O)CCCCCCCCCCCCCCCCC(=O)[*:2]].[gGlu].[gGlu].[gGlu].[Sar].[Sar].[Sar].[Sar].[Sar].[Sar].[Sar].[Sar].[Sar].[Sar].[Sar].[Sar].[Sar].[Sar].[Sar].[O=C(CN1CCN(CCN[*:1])CC1)[*:2]].Y.F.[meL].[Nle].R.[meA].R.G.[am]}$$$$V2.0) | 2.8 | 76.3 | 1100
CCCC[C@H](NC(=O)[C@H](CC(C)C)N(C)C(=O)[C@H](Cc1ccccc1)NC(=O)[C@H](Cc1ccc(O)cc1)NC(=O)CN1CCN(CCNC(=O)CN(C)C(=O)CN(C)C(=O)CN(C)C(=O)CN(C)C(=O)CN(C)C(=O)CN(C)C(=O)CN(C)C(=O)CN(C)C(=O)CN(C)C(=O)CN(C)C(=O)CN(C)C(=O)CN(C)C(=O)CC[C@H](NC(=O)CC[C@H](NC(=O)CC[C@H](NC(=O)CCCCCCCCCCCCCCCCC(=O)O)C(=O)O)C(=O)O)C(=O)O)CC1)C(=O)N[C@@H](CCCNC(=N)N)C(=O)N(C)[C@@H](C)C(=O)N[C@@H](CCCNC(=N)N)C(=O)NCC(N)=O [Compound 12, C18DA-gGlu3-Sar12-AEPipAc-Tyr-Phe-NMeLeu-Nle-Arg-NMeAla-Arg-Gly-NH2] | 2.7 | 36.2 | 1000
CCCC[C@H](NC(=O)[C@H](CC(C)C)N(C)C(=O)[C@H](Cc1ccccc1)NC(=O)[C@H](Cc1ccc(O)cc1)NC(=O)CN1CCN(CCNC(=O)CN(C)C(=O)CN(C)C(=O)CN(C)C(=O)CN(C)C(=O)CN(C)C(=O)CN(C)C(=O)CN(C)C(=O)CN(C)C(=O)CN(C)C(=O)CN(C)C(=O)CN(C)C(=O)CN(C)C(=O)CC[C@H](NC(=O)CC[C@H](NC(=O)CC[C@H](NC(=O)CCCCCCCCCCCCCCCCC(=O)O)C(=O)O)C(=O)O)C(=O)O)CC1)C(=O)N[C@@H](CCCN)C(=O)N(C)[C@@H](C)C(=O)N[C@@H](CCCNC(=N)N)C(=O)NCC(N)=O [Compound 20, C18DA-gGlu3-Sar12-AEPipAc-Tyr-Phe-NMeLeu-Nle-Orn-NMeAla-Arg-Gly-NH2] | 2.2 | 23.7 | > 1000
CCCC[C@H](NC(=O)[C@H](CC(C)C)N(C)C(=O)[C@H](Cc1ccccc1)NC(=O)[C@H](Cc1ccc(O)cc1)NC(=O)CN1CCN(CCNC(=O)CN(C)C(=O)CN(C)C(=O)CN(C)C(=O)CN(C)C(=O)CN(C)C(=O)CN(C)C(=O)CN(C)C(=O)CN(C)C(=O)CN(C)C(=O)CN(C)C(=O)CN(C)C(=O)CN(C)C(=O)CN(C)C(=O)CN(C)C(=O)CN(C)C(=O)CC[C@H](NC(=O)CC[C@H](NC(=O)CC[C@H](NC(=O)CCCCCCCCCCCCCCCCC(=O)O)C(=O)O)C(=O)O)C(=O)O)CC1)C(=O)N[C@@H](CCCN)C(=O)N1CCC[C@H]1C(=O)N[C@@H](CCCNC(=N)N)C(=O)NCC(N)=O [Compound 21, C18DA-gGlu3-Sar15-AEPipAc-Tyr-Phe-NMeLeu-Nle-Orn-Pro-Arg-Gly-NH2] (HELM PEPTIDE1{[O=C(O)CCCCCCCCCCCCCCCCC(=O)[*:2]].[gGlu].[gGlu].[gGlu].[Sar].[Sar].[Sar].[Sar].[Sar].[Sar].[Sar].[Sar].[Sar].[Sar].[Sar].[Sar].[Sar].[Sar].[Sar].[O=C(CN1CCN(CCN[*:1])CC1)[*:2]].Y.F.[meL].[Nle].[Orn].P.R.G.[am]}$$$$V2.0) | 2.6 | 55.9 | > 1000
CCCC[C@H](NC(=O)[C@H](CC(C)C)N(C)C(=O)[C@H](Cc1ccccc1)NC(=O)[C@H](Cc1ccc(O)cc1)NC(=O)CN1CCN(CCNC(=O)CN(C)C(=O)CN(C)C(=O)CN(C)C(=O)CN(C)C(=O)CN(C)C(=O)CN(C)C(=O)CN(C)C(=O)CN(C)C(=O)CN(C)C(=O)CN(C)C(=O)CN(C)C(=O)CN(C)C(=O)CN(C)C(=O)CN(C)C(=O)CN(C)C(=O)CC[C@H](NC(=O)CC[C@H](NC(=O)CC[C@H](NC(=O)CCCCCCCCCCCCCCCCC(=O)O)C(=O)O)C(=O)O)C(=O)O)CC1)C(=O)N[C@@H](CCCN)C(=O)N(C)[C@@H](C)C(=O)N[C@@H](CCCNC(=N)N)C(=O)NCC(N)=O [Compound 22, C18DA-gGlu3-Sar15-AEPipAc-Tyr-Phe-NMeLeu-Nle-Orn-NMeAla-Arg-Gly-NH2] (HELM PEPTIDE1{[O=C(O)CCCCCCCCCCCCCCCCC(=O)[*:2]].[gGlu].[gGlu].[gGlu].[Sar].[Sar].[Sar].[Sar].[Sar].[Sar].[Sar].[Sar].[Sar].[Sar].[Sar].[Sar].[Sar].[Sar].[Sar].[O=C(CN1CCN(CCN[*:1])CC1)[*:2]].Y.F.[meL].[Nle].[Orn].[meA].R.G.[am]}$$$$V2.0) | 3.2 | 45.8 | > 1000
CCCC[C@H](NC(=O)[C@H](CC(C)C)N(C)C(=O)[C@H](Cc1ccccc1)NC(=O)[C@H](Cc1ccc(O)cc1)NC(=O)CN1CCN(CCNC(=O)CN(C)C(=O)CN(C)C(=O)CN(C)C(=O)CN(C)C(=O)CN(C)C(=O)CN(C)C(=O)CN(C)C(=O)CN(C)C(=O)CN(C)C(=O)CN(C)C(=O)CN(C)C(=O)CN(C)C(=O)CN(C)C(=O)CN(C)C(=O)CN(C)C(=O)CC[C@H](NC(=O)CC[C@H](NC(=O)CC[C@H](NC(=O)CCCCCCCCCCCCCCCCC(=O)O)C(=O)O)C(=O)O)C(=O)O)CC1)C(=O)N[C@@H](CCN)C(=O)N(C)[C@@H](C)C(=O)N[C@@H](CCCNC(=N)N)C(=O)NCC(N)=O [Compound 23, C18DA-gGlu3-Sar15-AEPipAc-Tyr-Phe-NMeLeu-Nle-Dbu-NMeAla-Arg-Gly-NH2] (HELM PEPTIDE1{[O=C(O)CCCCCCCCCCCCCCCCC(=O)[*:2]].[gGlu].[gGlu].[gGlu].[Sar].[Sar].[Sar].[Sar].[Sar].[Sar].[Sar].[Sar].[Sar].[Sar].[Sar].[Sar].[Sar].[Sar].[Sar].[O=C(CN1CCN(CCN[*:1])CC1)[*:2]].Y.F.[meL].[Nle].[Dab].[meA].R.G.[am]}$$$$V2.0) | 3.3 | 38.8 | > 1000
